Test results as given in the supplement of paper PMC10307832.

What was measured:
Assay in all cases: relative viability (nuclei count vs DMSO), 5 days (fraction); higher = more cells survive
[1] = compound: C1=CC2=NC=CN=C2C=C1/C=C/3\C(=O)NC(=O)S3 + COc1cccc2cc(-c3nc([C@H]4CC[C@H](C(=O)O)CC4)n4ncnc(N)c34)[nH]c12 [OSI-027] (partner 0.5 µM)
Summary of the method: (§1)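 Relative viability was taken as the ratio of nuclei in treated wells to nuclei in vehicle wells. Lung cancer cell lines in 1536-well plates received compounds by pin tool one day after seeding, either one drug alone or a fixed anchor-drug dose plus five library-drug doses (not always all listed) in √10 steps. Nuclei were counted on 4× images after 5 days of treatment, and values are medians of duplicate plates.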

BGJ398 + Lapatinib = compound: CCN1CCN(c2ccc(Nc3cc(N(C)C(=O)Nc4c(Cl)c(OC)cc(OC)c4Cl)ncn3)cc2)CC1 [BGJ398] + CS(=O)(=O)CCNCc1ccc(-c2ccc3ncnc(Nc4ccc(OCc5cccc(F)c5)c(Cl)c4)c3c2)o1 [Lapatinib] (partner 2 µM)
Summary of the method: as §1

BGJ398 + Dasatinib = compound: CCN1CCN(c2ccc(Nc3cc(N(C)C(=O)Nc4c(Cl)c(OC)cc(OC)c4Cl)ncn3)cc2)CC1 [BGJ398] + Cc1nc(Nc2ncc(C(=O)Nc3c(C)cccc3Cl)s2)cc(N2CCN(CCO)CC2)n1 [Dasatinib] (partner 0.075 µM)
Summary of the method: as §1

[2] = compound: C1=CC2=NC=CN=C2C=C1/C=C/3\C(=O)NC(=O)S3 + CS(=O)(=O)N1CCN(Cc2cc3nc(-c4cccc5[nH]ncc45)nc(N4CCOCC4)c3s2)CC1 [Pictilisib] (partner 1 µM)
Summary of the method: as §1

| Cell Line | relative viability ([1]; first compound 0.02 µM) | relative viability ([1]; first compound 0.06325 µM) | relative viability ([1]; first compound 0.2 µM) | relative viability ([1]; first compound 0.6325 µM) | relative viability ([1]; first compound 2 µM) | relative viability (BGJ398 + Lapatinib; first compound 0.01 µM) | relative viability (BGJ398 + Lapatinib; first compound 0.03162 µM) | relative viability (BGJ398 + Lapatinib; first compound 0.1 µM) | relative viability (BGJ398 + Lapatinib; first compound 0.3162 µM) | relative viability (BGJ398 + Lapatinib; first compound 1 µM) | relative viability (BGJ398 + Dasatinib; first compound 0.01 µM) | relative viability (BGJ398 + Dasatinib; first compound 0.1 µM) | relative viability (BGJ398 + Dasatinib; first compound 0.3162 µM) | relative viability (BGJ398 + Dasatinib; first compound 1 µM) | relative viability ([2]; first compound 0.02 µM) | relative viability ([2]; first compound 0.06325 µM) | relative viability ([2]; first compound 0.2 µM) | relative viability ([2]; first compound 0.6325 µM) | relative viability ([2]; first compound 2 µM) | relative viability (BGJ398 + Dasatinib; first compound 0.03162 µM) |
| --- | --- | --- | --- | --- | --- | --- | --- | --- | --- | --- | --- | --- | --- | --- | --- | --- | --- | --- | --- | --- |
| NCI-H1650 | 0.688 | 0.605 | 0.783 | 0.677 | 0.493 | 0.608 | 0.828 | 0.367 | 0.32 | 0.234 | 0.31 | 0.205 | 0.163 | 0.17 | 0.562 | 0.531 | 0.594 | 0.553 | 0.656 | – |
| BEN | 0.306 | 0.287 | 0.288 | 0.289 | 0.275 | 0.608 | 0.828 | 0.7 | 0.656 | 0.671 | 0.349 | 0.331 | 0.252 | 0.26 | 0.54 | 0.622 | 0.613 | 0.496 | 0.556 | 0.298 |
| EMC-BAC-2 | 0.307 | 0.436 | 0.416 | 0.37 | 0.251 | 0.872 | 0.982 | 0.899 | 0.832 | 0.838 | 0.273 | 0.355 | 0.36 | 0.314 | 0.431 | 0.552 | 0.563 | 0.482 | 0.463 | 0.337 |
| LU99A | 0.298 | 0.332 | 0.295 | 0.293 | 0.218 | 0.935 | 0.896 | 1.07 | 0.913 | 0.85 | 0.569 | 0.518 | 0.321 | 0.409 | 0.33 | 0.365 | 0.317 | 0.341 | 0.245 | 0.487 |
| ABC-1 | 0.434 | 0.509 | 0.509 | 0.408 | 0.232 | 1.07 | 1.06 | 1.16 | 1.23 | 1.22 | 0.504 | 0.608 | 0.545 | 0.515 | 0.676 | 0.67 | 0.721 | 0.673 | 0.576 | 0.539 |
| NCI-H2170 | 0.714 | 0.777 | 0.729 | 0.71 | 0.679 | 0.289 | 0.197 | 0.256 | 0.268 | 0.264 | 0.527 | 0.562 | 0.545 | 0.558 | 0.296 | 0.273 | 0.369 | 0.28 | 0.258 | 0.427 |
| NCI-H1299 | – | – | – | – | – | 0.956 | 0.956 | 0.943 | 0.968 | 0.972 | – | – | – | – | 0.753 | 0.925 | 0.931 | 0.762 | 0.85 | – |
| EBC-1 | – | – | – | – | – | 0.215 | 0.222 | 0.178 | 0.23 | 0.21 | – | – | – | – | 0.407 | 0.518 | 0.42 | 0.413 | 0.459 | – |
| NCI-H2347 | 0.505 | 0.306 | 0.412 | 0.5 | 0.276 | 0.913 | 1.02 | 0.944 | 0.926 | 0.893 | 0.314 | 0.342 | 0.278 | 0.262 | 0.706 | 0.609 | 0.748 | 0.527 | 0.757 | 0.291 |
